Measurements published in patent EP3046573B1, “AMYLIN ANALOGUES” (Zealand Pharma A/S, priority 2013, dated 2015).
Read-outs that look alike come from different tables or passages of the source. Numbered stars: 1 amine (or outer) side, 2 acyl side, 3 side chain; on linkers, the order of the positions; unused ones are H or OH. Bridge positions count the residues as written; N and C are the ends. Square brackets hold non-standard residues; d marks the D form. Peptide text beside a SMILES is read from it. * marks the point of attachment. C20 diacid = O=C(O)CCCCCCCCCCCCCCCCCCC(=O)*; γGlu = O=C(O)[C@H](CCC(=O)[*:2])N[*:1]; Hyp = O=C(O)[C@@H]1C[C@@H](O)CN1; NMeI = CC[C@H](C)[C@H](NC)C(=O)O; Sar = CNCC(=O)O

What was measured:
[1] = Assessment of physical stability: fibril formation detected with Thioflavin T (ThT), lag-time; format: physicochemical; conditions: 1 mg/ml peptide, 40 µM ThT, FND = Fibrillation not detected; for Fibrillation lag time (hours) pH 4.0 (Ac): 50 mM acetate buffer pH 4.0, 96 hours at 40°C; for Fibrillation lag time (hours) pH 7.0 (His): 50 mM histidine buffer pH 7.0, 96 hours at 40°C; for Fibrillation lag time (hours) pH 7.0 (Ph): 50 mM phosphate buffer pH 7.0, 96 hours at 40°C
Summary of the method: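 Test peptide at 1 mg/ml with 40 µM ThT in 50 mM phosphate (pH 7.0), 50 mM histidine (pH 7.0) or 50 mM acetate (pH 4.0), in triplicate, 40° C. for 96 h. Fluorescence read every 10 min after 300 s agitation. Lag-time (h) taken as intersection of linear fits to initial stable and growth phases.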

[2] = target: T1, human amylin receptor 3 (hAMYR3) consisting of hCTR2 co-expressed with human Receptor Activity Modifying Protein 3 (hRAMP3) (Homo sapiens, UniProt O60896+P30988); test: hAMYR3 assay: induction of cAMP (AlphaScreen cAMP Assay kit) in COS7 cells expressing hAMYR3; format: cell-based
T1 construct: expressed in transfected cells
T1 sequence (P30988 25-474): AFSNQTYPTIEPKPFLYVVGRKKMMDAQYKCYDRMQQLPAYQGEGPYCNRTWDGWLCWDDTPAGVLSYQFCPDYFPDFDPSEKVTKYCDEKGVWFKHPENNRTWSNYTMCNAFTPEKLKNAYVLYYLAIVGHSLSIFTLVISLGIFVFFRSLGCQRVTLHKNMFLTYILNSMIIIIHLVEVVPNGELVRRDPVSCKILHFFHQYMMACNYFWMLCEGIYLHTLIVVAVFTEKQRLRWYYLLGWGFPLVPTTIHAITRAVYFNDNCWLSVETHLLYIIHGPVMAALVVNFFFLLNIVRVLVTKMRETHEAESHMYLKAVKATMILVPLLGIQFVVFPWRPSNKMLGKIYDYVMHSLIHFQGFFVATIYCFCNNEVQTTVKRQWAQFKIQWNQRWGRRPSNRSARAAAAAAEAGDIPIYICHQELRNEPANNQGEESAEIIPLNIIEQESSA
T1 sequence (O60896 24-148 partner): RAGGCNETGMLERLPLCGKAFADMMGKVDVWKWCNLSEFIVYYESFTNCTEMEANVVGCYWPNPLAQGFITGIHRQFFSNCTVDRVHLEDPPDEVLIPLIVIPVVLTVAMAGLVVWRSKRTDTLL
Summary of the method: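 cAMP accumulation read by AlphaScreen in lysates of RAMP-naive COS7 cells stably transfected with hCTR2 plus hRAMP3. Cells exposed to peptide dilutions for 15 min, 37° C, with 100 µM IBMX; 4PL fitting gave EC50 and efficacy relative to pramlintide.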

[3] = cAMP induction in COS7 cells expressing hAMYR3, average of a minimum of 3 determinations, read-out: hAMY R3 EC50

| SMILES | Fibrillation lag time (hours) pH 4.0 (Ac) [1] | Fibrillation lag time (hours) pH 7.0 (His) [1] | Fibrillation lag time (hours) pH 7.0 (Ph) [1] | EC50 [2, 3] [nM] | EC50 [2] [nM] |
| --- | --- | --- | --- | --- | --- |
| CC[C@H](C)[C@@H](C(=O)N[C@@H](CC(C)C)C(=O)N[C@@H](CO)C(=O)N[C@@H](CO)C(=O)N[C@H](C(=O)N[C@@H](CCC(=O)O)C(=O)N[C@H](C(=O)NCC(=O)N[C@@H](CO)C(=O)N[C@@H](CCC(=O)O)C(=O)N[C@H](C(=O)N1CCC[C@H]1C(N)=O)[C@@H](C)O)C(C)C)[C@@H](C)O)N(C)C(=O)[C@H](C)NC(=O)CN(C)C(=O)[C@H](Cc1ccccc1)NC(=O)[C@H](CO)NC(=O)[C@H](CO)NC(=O)[C@H](CCCNC(=N)N)NC(=O)[C@H](Cc1c[nH]cn1)NC(=O)[C@H](CC(C)C)NC(=O)[C@H](Cc1ccccc1)NC(=O)[C@H](CCC(=O)O)NC(=O)[C@H](C)NC(=O)[C@H](CC(C)C)NC(=O)[C@H](CCCNC(=N)N)NC(=O)[C@H](CCC(=O)O)NC(=O)[C@@H](NC(=O)[C@H](C)NC(=O)[C@@H]1CSSC[C@H](NC(=O)[C@H](Cc2c[nH]c3ccccc23)NC(=O)CC[C@H](NC(=O)CCCCCCCCCCCCCCCCCCC(=O)O)C(=O)O)C(=O)NCC(=O)N[C@@H]([C@@H](C)O)C(=O)N[C@@H](C)C(=O)N[C@@H]([C@@H](C)O)C(=O)N1)[C@@H](C)O [Compound 161, [19CD]-isoGlu-WC()GTATC()ATERLAEFLHRSSF-Gly(Me)-A-Ile(Me)-LSSTEVGSETP-NH2] ({C20 diacid-γGlu}-WCGTATCATERLAEFLHRSSF[Sar]A[NMeI]LSSTEVGSETP-NH2; disulfide 2-7) | FND | FND | FND | 0.19 |  |
| CC[C@H](C)[C@@H](C(=O)N[C@@H](CC(C)C)C(=O)N[C@@H](CO)C(=O)N[C@@H](CO)C(=O)N[C@H](C(=O)N[C@@H](CCC(=O)O)C(=O)N[C@H](C(=O)NCC(=O)N[C@@H](CO)C(=O)N[C@@H](CCC(=O)O)C(=O)N[C@H](C(=O)N1CCC[C@H]1C(N)=O)[C@@H](C)O)C(C)C)[C@@H](C)O)N(C)C(=O)[C@H](C)NC(=O)CN(C)C(=O)[C@H](Cc1ccccc1)NC(=O)[C@H](CO)NC(=O)[C@H](CO)NC(=O)[C@H](CCCNC(=N)N)NC(=O)[C@H](Cc1c[nH]cn1)NC(=O)[C@H](CC(C)C)NC(=O)[C@H](Cc1ccccc1)NC(=O)[C@H](CCC(=O)O)NC(=O)[C@H](C)NC(=O)[C@H](CC(C)C)NC(=O)[C@H](CCCNC(=N)N)NC(=O)[C@H](CCC(=O)O)NC(=O)[C@@H](NC(=O)[C@H](C)NC(=O)[C@@H]1CSSC[C@H](NC(=O)[C@H](CCCNC(=N)N)NC(=O)CC[C@H](NC(=O)CCCCCCCCCCCCCCCCCCC(=O)O)C(=O)O)C(=O)NCC(=O)N[C@@H]([C@@H](C)O)C(=O)N[C@@H](C)C(=O)N[C@@H]([C@@H](C)O)C(=O)N1)[C@@H](C)O [Compound 162, [19CD]-isoGlu-RC()GTATC()ATERLAEFLHRSSF-Gly(Me)-A-Ile(Me)-LSSTEVGSETP-NH2] ({C20 diacid-γGlu}-RCGTATCATERLAEFLHRSSF[Sar]A[NMeI]LSSTEVGSETP-NH2; disulfide 2-7) | FND | FND | FND | 0.14 |  |
| CC[C@H](C)[C@@H](C(=O)N[C@@H](CC(C)C)C(=O)N[C@@H](CO)C(=O)N[C@@H](CO)C(=O)N[C@H](C(=O)N[C@@H](CCC(=O)O)C(=O)N[C@H](C(=O)NCC(=O)N[C@@H](CO)C(=O)N[C@@H](CCC(=O)O)C(=O)N[C@H](C(=O)N1C[C@H](O)C[C@H]1C(N)=O)[C@@H](C)O)C(C)C)[C@@H](C)O)N(C)C(=O)[C@H](C)NC(=O)CN(C)C(=O)[C@H](Cc1ccccc1)NC(=O)[C@H](CO)NC(=O)[C@H](CO)NC(=O)[C@H](CCCNC(=N)N)NC(=O)[C@H](Cc1c[nH]cn1)NC(=O)[C@H](CC(C)C)NC(=O)[C@H](Cc1ccccc1)NC(=O)[C@H](CCC(=O)O)NC(=O)[C@H](C)NC(=O)[C@H](CC(C)C)NC(=O)[C@H](CCCNC(=N)N)NC(=O)[C@H](CCC(=O)O)NC(=O)[C@@H](NC(=O)[C@H](C)NC(=O)[C@@H]1CSSC[C@H](NC(=O)[C@H](CCCNC(=N)N)NC(=O)CC[C@H](NC(=O)CCCCCCCCCCCCCCCCCCC(=O)O)C(=O)O)C(=O)NCC(=O)N[C@@H]([C@@H](C)O)C(=O)N[C@@H](C)C(=O)N[C@@H]([C@@H](C)O)C(=O)N1)[C@@H](C)O [Compound 166, [19CD]-isoGlu-RC()GTATC()ATERLAEFLHRSSF-Gly(Me)-A-Ile(Me)-LSSTEVGSET-Hyp-NH2] ({C20 diacid-γGlu}-RCGTATCATERLAEFLHRSSF[Sar]A[NMeI]LSSTEVGSET[Hyp]-NH2; disulfide 2-7) | FND | FND | FND | 0.11 |  |
| CC[C@H](C)[C@@H](C(=O)N[C@@H](CC(C)C)C(=O)N[C@@H](CO)C(=O)N[C@@H](CO)C(=O)N[C@H](C(=O)N[C@@H](CC(=O)O)C(=O)N[C@H](C(=O)NCC(=O)N[C@@H](CO)C(=O)N[C@@H](CC(=O)O)C(=O)N[C@H](C(=O)N1CCC[C@H]1C(N)=O)[C@@H](C)O)C(C)C)[C@@H](C)O)N(C)C(=O)[C@H](C)NC(=O)CN(C)C(=O)[C@H](Cc1ccccc1)NC(=O)[C@H](CO)NC(=O)[C@H](CO)NC(=O)[C@H](CCCNC(=N)N)NC(=O)[C@H](Cc1c[nH]cn1)NC(=O)[C@H](CC(C)C)NC(=O)[C@H](Cc1ccccc1)NC(=O)[C@H](CCC(=O)O)NC(=O)[C@H](C)NC(=O)[C@H](CC(C)C)NC(=O)[C@H](CCCNC(=N)N)NC(=O)[C@H](CC(=O)O)NC(=O)[C@@H](NC(=O)[C@H](C)NC(=O)[C@@H]1CSSC[C@H](NC(=O)[C@H](CCCNC(=N)N)NC(=O)CC[C@H](NC(=O)CCCCCCCCCCCCCCCCCCC(=O)O)C(=O)O)C(=O)N2CCC[C@H]2C(=O)N[C@@H]([C@@H](C)O)C(=O)N[C@@H](C)C(=O)N[C@@H]([C@@H](C)O)C(=O)N1)[C@@H](C)O [Compound 172, [19CD]-isoGlu-RC()PTATC()ATDRLAEFLHRSSF-Gly(Me)-A-Ile(Me)-LSSTDVGSDTP-NH2] ({C20 diacid-γGlu}-RCPTATCATDRLAEFLHRSSF[Sar]A[NMeI]LSSTDVGSDTP-NH2; disulfide 2-7) | FND | FND | FND | 0.095 |  |
| CC[C@H](C)[C@@H](C(=O)N[C@@H](CC(C)C)C(=O)N[C@@H](CO)C(=O)N[C@@H](CO)C(=O)N[C@H](C(=O)N[C@@H](CC(N)=O)C(=O)N[C@H](C(=O)NCC(=O)N[C@@H](CO)C(=O)N[C@@H](CC(N)=O)C(=O)N[C@H](C(=O)N1CCC[C@H]1C(N)=O)[C@@H](C)O)C(C)C)[C@@H](C)O)N(C)C(=O)[C@H](C)NC(=O)CN(C)C(=O)[C@H](Cc1ccccc1)NC(=O)[C@H](CC(N)=O)NC(=O)[C@H](CC(N)=O)NC(=O)[C@H](CO)NC(=O)[C@H](CO)NC(=O)[C@H](CCCNC(=N)N)NC(=O)[C@H](Cc1c[nH]cn1)NC(=O)[C@H](CC(C)C)NC(=O)[C@H](Cc1ccccc1)NC(=O)[C@H](CCC(=O)O)NC(=O)[C@H](C)NC(=O)[C@H](CC(C)C)NC(=O)[C@H](CCCNC(=N)N)NC(=O)[C@H](CCC(N)=O)NC(=O)[C@@H](NC(=O)[C@H](C)NC(=O)[C@@H]1CSSC[C@H](NC(=O)[C@H](Cc2c[nH]c3ccccc23)NC(=O)[C@H](CCCNC(=N)N)NC(=O)CC[C@H](NC(=O)CCCCCCCCCCCCCCCCCCC(=O)O)C(=O)O)C(=O)N[C@@H](CC(N)=O)C(=O)N[C@@H]([C@@H](C)O)C(=O)N[C@@H](C)C(=O)N[C@@H]([C@@H](C)O)C(=O)N1)[C@@H](C)O [Compound 174, [19CD]-isoGlu-RWC()NTATC()ATQRLAEFLHRSSNNF-Gly(Me)-A-Ile(Me)-LSSTNVGSNTP-NH2] ({C20 diacid-γGlu}-RWCNTATCATQRLAEFLHRSSNNF[Sar]A[NMeI]LSSTNVGSNTP-NH2; disulfide 3-8) | FND | FND | FND |  | 0.18 |
